Experimental data as given in the NIST ThermoML archive (doi:10.1016/j.fluid.2014.01.046).
Values joined by “and” are separate entries in the source; they are usually repeats but may differ in a detail not shown here. Equal values may be shown once. ± gives the expanded uncertainty stated by the source.

Columns and labels:
[1] = 298.15 K; 101.33 kPa; Liquid; Vibrating tube method
[2] = xn = mol fraction of the nth substance listed; details: 298.15 K, 101 kPa, Liquid, Vibrating tube method

C1CCCCC1 [cyclohexane]
mass density [1]: 773.814 ± 2 kg/m3

CN(C)C=O [dimethylformamide]
mass density [1]: 943.827 ± 2 kg/m3

CN(C)C=O [dimethylformamide] + C1CCCCC1
mass density ([2]; x1 = 0.0013): 773.912 ± 2 kg/m3
mass density ([2]; x1 = 0.0032): 774.059 ± 2 kg/m3
mass density ([2]; x1 = 0.00735): 774.39 ± 2 kg/m3
mass density ([2]; x1 = 0.00767): 774.433 ± 2 kg/m3
mass density ([2]; x1 = 0.0142): 774.963 ± 2 kg/m3
mass density ([2]; x1 = 0.0191): 775.4 ± 2 kg/m3
mass density ([2]; x1 = 0.0404): 777.361 ± 2 kg/m3
mass density ([2]; x1 = 0.05): 778.28 ± 2 kg/m3 and 778.287 ± 2 kg/m3 and 778.289 ± 2 kg/m3
mass density ([2]; x1 = 0.0554): 778.816 ± 2 kg/m3
mass density ([2]; x1 = 0.8496): 906.747 ± 2 kg/m3
mass density ([2]; x1 = 0.8504): 906.951 ± 2 kg/m3
mass density ([2]; x1 = 0.8533): 907.513 ± 2 kg/m3
mass density ([2]; x1 = 0.8999): 918.584 ± 2 kg/m3
mass density ([2]; x1 = 0.9245): 924.576 ± 2 kg/m3
mass density ([2]; x1 = 0.969): 935.786 ± 2 kg/m3

CCO [ethanol]
mass density [1]: 785.106 ± 2 kg/m3
